Patent US20140093884A1, “Process for Identifying Novel Anti-Inflammatory Molecules with Reduced Direct Transrepression of Genes Induced by Glucocorticoids” (UNIVERSITE DE STRASBOURG, priority 2011, published 2014)
One block for each compound: values may come before it.

What was measured:
TSLP = TSLP transcript levels in mouse ear epidermis after topical treatment (Q-RT-PCR); assay type: in vivo
Description: Mice. […] Real time PCR. Total RNA was reverse transcribed using hexamers, followed by Q-PCR, as reported (Li et al., 2005). The GC agonist fluocinolone acetonide (FA) was applied to ears of mice concomitantly treated with the “low-calcemic” Vitamin D3 (VitD3) analog MC903 (Calcipotriol; hereafter called MC) to trigger TSLP expression (Li et al., 2006). […] As expected, the expression of the GC-inducible GPX3 (glutathione peroxidase 3) gene which harbours a (+)GRE (Tuckermann et al., 1999) was enhanced by FA (FIG. 10) and inhibited by RU co-treatment, while FA or RU had no effect on MC-dependent expression of the CYP24A1 gene (a VitD3 target) (FIG. 10). […] Although the basal TSLP level was similar in vehicle-treated WT and GR^ep−/− mice, FA blocked MC-induced TSLP expression in WT, but not in GR^ep−/− mice (not shown).

[1] = test system: GPX3 (glutathione peroxidase 3) gene, (+)GRE; assay: GPX3 transcript levels in mouse ear epidermis after topical treatment (Q-RT-PCR); assay type: in vivo; settings: WT mice, ears, topical, FIG. 10
Description: (§1) Mice. […] Real time PCR. Total RNA was reverse transcribed using hexamers, followed by Q-PCR, as reported (Li et al., 2005). The GC agonist fluocinolone acetonide (FA) was applied to ears of mice concomitantly treated with the “low-calcemic” Vitamin D3 (VitD3) analog MC903 (Calcipotriol; hereafter called MC) to trigger TSLP expression (Li et al., 2006). […] As expected, the expression of the GC-inducible GPX3 (glutathione peroxidase 3) gene which harbours a (+)GRE (Tuckermann et al., 1999) was enhanced by FA (FIG. 10) and inhibited by RU co-treatment, while FA or RU had no effect on MC-dependent expression of the CYP24A1 gene (a VitD3 target) (FIG. 10).

[2] = test system: CYP24A1 gene (a VitD3 target); assay: CYP24A1 transcript levels in mouse ear epidermis after topical treatment (Q-RT-PCR); assay type: in vivo; settings: mouse ears, FIG. 10
Description: as §1

[3] = test system: IR nGRE (pGL3(VDRE) IR1 nGRE luciferase reporter); assay: Luciferase reporter assay in A549 cells, pGL3(VDRE) IR nGRE plasmids; assay type: cell-based, human; settings: pGL3(VDRE) IR1 nGRE
Protocol: Luciferase reporter assay. A549 cells seeded on 24-well tissue culture plates overnight at 70% confluency were transfected with 100 ng pCMV β galactosidase, 200 ng pGL3 reporter plasmids and wherever indicated, with 600 ng pSG5 hVDR plasmid (Green et al., 1988) into each well and maintained in medium containing charcoal treated FCS. 24 hours post-transfection, medium was changed and different compounds were added to it for 6 hours. […] Luciferase assay was carried out as instructed (Promega). Normalized values are reported as the mean±SEM; each value originates from at least three individual transfections with assays performed in duplicate.
To investigate whether additional DNA elements could be required to generate a repressing activity, the TSLP IR1 nGRE was inserted upstream of an enhancerless SV40 early promoter located 5′ to the luciferase coding sequence of pGL3 vector, A VDRE separated from the IR1 nGRE by a 314 bp-long DNA segment devoid of any known transregulator binding site (not shown) was inserted to generate a luciferase-expressing reporter plasmid (pGL3(VDRE) IR1 nGRE, FIG. 4), which was transfected into A549 cells, followed by addition of VitD3 and/or FA.
To investigate whether the 1 bp spacer between the inverted repeated motifs of TSLP IR1 nGRE was critical for its repressing function, pGL3-based luciferase plasmids containing the VDRE and TSLP nGRE motifs spaced by 0 to 5 bases (IR0 to IR5 nGREs) were transfected into A549 cells.

[4] = test system: IR0 and IR2 nGRE containing genes; assay: Dex with RU co-administration, expression of IR0 and IR2 genes in epidermis, intestinal epithelium and liver; assay type: in vivo, mouse; settings: Dex-treated mice, in all cases
Protocol: Mice. For topical treatment, 1 nmole (nm)/cm^2 MC903, at-RA or TPA; 6 nm/cm^2 FA, Dex or RU24858; and 90 nm/cm^2 RU486 were used. For systemic use, 100 ng/kg body weight active Vit D3, 8 mg/kg Dex and 64 mg/kg RU486 was intraperitoneally injected. GRdim mice were from the European Mouse Mutant Archives (EM:02123). Breeding, maintenance and experimental manipulation of mice were approved by the Animal Care and Use Committee of the IGBMC.

[5] = test system: IR nGRE genes CCND1, PRKCB, FSTL1; settings: mouse, in vivo
Protocol: (§2) Gene transcripts in epidermis of WT and GRdim mutant mice topically treated as indicated for 6 hours are analysed by Q-RT-PCR.
(§3) Note that epidermis was treated as indicated with TPA, to activate NFκB and AP1 factors.

[6] = test system: Cox2 gene (NFκB and AP1 binding sites); assay: Q-RT-PCR of Cox2 in epidermis of WT and GRdim mice topically treated 6 hours (TPA-activated); settings: mouse, in vivo
Protocol: as §2, §3

[7] = test system: (+)GRE (PGL3(VDRE) (+)GRE luciferase reporter); assay: Luciferase reporter assay in A549 cells, PGL3(VDRE) (+)GRE vector; assay type: cell-based, human; settings: compared with Dex
Protocol: (§4) Luciferase reporter assay. A549 cells seeded on 24-well tissue culture plates overnight at 70% confluency were transfected with 100 ng pCMV β galactosidase, 200 ng pGL3 reporter plasmids and wherever indicated, with 600 ng pSG5 hVDR plasmid (Green et al., 1988) into each well and maintained in medium containing charcoal treated FCS. 24 hours post-transfection, medium was changed and different compounds were added to it for 6 hours. Final concentrations of the compounds are: FA, 500 nM; Dex or RU24858, 300 nM or 500 nM (wherever 300 nM Dex or RU was used, it is indicated in the figure, in all other cases, 500 nM concentration was used); active vitamin D3, 1 μM; IL-1β, 5 ng/ml; BAY 11-7082, 5 μM, JNK inhibitor II, 25 μM. Luciferase assay was carried out as instructed (Promega). Normalized values are reported as the mean±SEM; each value originates from at least three individual transfections with assays performed in duplicate. […]

[8] = test system: NFκB-driven transcription (PGL4-NFκB vector); assay: Luciferase assay in IL-1β-activated A549 cells transfected with PGL4-NFκB; assay type: cell-based, human; settings: 6 hours, FIG. 15A left panel
Protocol: (§5) A549 cells transfected with PGL4-NFκB (NFκBluc plasmid) of SEQ ID NO:56 and PGL4-AP1 (AP1luc plasmid) of SEQ ID NO:55 were treated as indicated for 6 hours, followed by luciferase assay. “BAY”=NFκB-specific inhibitor BAY 11-7082 and “JNK inhibit”=JNK inhibitor II). • B) Q-RT-PCR of gene transcripts from WT dorsal epidermis topically-treated with Dexamethasone or RU24858 for 18 hours (left panel) and from liver of WT mice IP-injected with Dexamethasone or RU24858 for 18 hours (right panel).
as §4, with “(Promega).” for “(Promega). Normalized values are reported as the mean±SEM; each value originates from at least three individual transfections with assays performed in duplicate.”

[9] = test system: AP1-driven transcription (PGL4-AP1 vector); assay: Luciferase assay in IL-1β-activated A549 cells transfected with PGL4-AP1; assay type: cell-based, human; settings: 6 hours, FIG. 15A right panel
Protocol: as §5
as §4, with “(Promega).” for “(Promega). Normalized values are reported as the mean±SEM; each value originates from at least three individual transfections with assays performed in duplicate.”

[10] = molecular target: T1, repressing complex tethered to NFκB (Homo sapiens, UniProt P04150); assay: ChIP of repressing complex tethered to NFκB on PGL4-NFκB vector in A549 cells; assay type: cell-based
T1 construct: GR-expressing cells are in vitro cultured cells, preferably human lung epithelial carcinoma cells A549; endogenous in cells; host or cells: A549 (CCL-185, ATCC)
T1 sequence (P04150 1-777): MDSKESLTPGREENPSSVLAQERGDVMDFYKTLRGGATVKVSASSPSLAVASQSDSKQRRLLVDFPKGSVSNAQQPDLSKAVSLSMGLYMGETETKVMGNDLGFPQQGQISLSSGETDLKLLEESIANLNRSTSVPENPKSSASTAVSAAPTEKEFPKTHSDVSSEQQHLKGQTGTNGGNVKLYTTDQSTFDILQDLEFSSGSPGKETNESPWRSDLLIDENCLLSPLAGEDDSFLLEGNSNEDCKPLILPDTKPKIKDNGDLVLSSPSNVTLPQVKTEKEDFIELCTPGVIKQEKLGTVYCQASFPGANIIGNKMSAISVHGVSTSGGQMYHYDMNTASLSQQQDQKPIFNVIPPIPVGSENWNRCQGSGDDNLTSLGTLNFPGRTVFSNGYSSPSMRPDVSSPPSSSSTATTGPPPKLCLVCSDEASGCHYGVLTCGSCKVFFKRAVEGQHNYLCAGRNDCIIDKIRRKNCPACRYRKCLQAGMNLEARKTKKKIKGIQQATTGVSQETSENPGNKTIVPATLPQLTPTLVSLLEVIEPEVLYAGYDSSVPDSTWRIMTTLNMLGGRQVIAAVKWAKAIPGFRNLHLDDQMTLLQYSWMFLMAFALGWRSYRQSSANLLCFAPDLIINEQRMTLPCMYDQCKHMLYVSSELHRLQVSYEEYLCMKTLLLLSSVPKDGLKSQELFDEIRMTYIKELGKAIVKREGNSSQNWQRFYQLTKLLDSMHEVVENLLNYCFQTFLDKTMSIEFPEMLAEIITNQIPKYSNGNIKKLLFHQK
Protocol: For ChIP assays to test GR and cofactor binding to the nGRE, +GRE or NFκB region of various luciferase reporter plasmids, ˜60% confluent A549 cells in 100 mm TC dish were transfected with 2 μg of respective plasmids using fugene 6 reagent (Roche) and maintained in charcoal treated FCS containing medium. 44 hours post-transfection, 500 nM FA or Dex or RU24858 and/or 5 μM RU486, 5 ng/ml IL-1β (final conc.) was added to the medium for 2 hours, followed by formaldehyde treatment and processing as described above.

[11] = test system: (+)GRE-containing GPX3 gene; assay: GPX3 expression in mouse epidermis after topical RU24858; assay type: in vivo
Description: (§6) Real time PCR. Total RNA was reverse transcribed using hexamers, followed by Q-PCR, as reported (Li et al., 2005).
(§7) The “activity profile” of RU24858 was also investigated in vivo.

[12] = test system: (+)GRE-containing GGT1 and ERP27 genes; assay: GGT1 and ERP27 expression in mouse liver after RU24858; assay type: in vivo
Description: as §6, §7

[13] = test system: genes of which the skin expression was enhanced by topical TPA treatment; assay: Down-regulation of TPA-enhanced genes in mouse skin (NFκB-mediated tethered transrepression); assay type: in vivo; settings: compared with Dex
Description: as §7

[14] = test system: IR0, IR1 and IR2 nGRE-containing genes; assay: Q-RT-PCR of IR nGRE-containing genes in WT mouse epidermis or liver after Dexamethasone or RU24858 for 18 hours; settings: in vivo, FIG. 15B, compared with Dex
Protocol: as §5, §6, §7

[15] = molecular target: T2, GR complexes on (+)GRE and nGRE regions (Mus musculus, UniProt P06537); assay: ChIP in vivo after RU24858 treatment
T2 construct: from tissue; host or cells: mouse epidermis, pancreas, liver
Description: as §7

GR [16] = molecular target: T3, GR (Homo sapiens, UniProt P04150); settings: cited from earlier work
T3 sequence (P04150 1-777): T1 sequence (P04150 1-777)

GR [17] = molecular target: T3, GR; settings: cited from earlier work; remark: listed apart in the source

SMILES: C=C1/C(=C\C=C2/CCC[C@]3(C)[C@@H]([C@H](C)/C=C/[C@@H](O)C4CC4)CC[C@@H]23)C[C@@H](O)C[C@@H]1O [MC903, Calcipotriol]
MC-induced TSLP expression in GRep-/- compared with WT mice (TSLP; GRep-/- vs WT mice): more efficient
TSLP RNA level (TSLP; WT mice, ears, topical MC903): increase

SMILES: CC#C[C@]1(O)CC[C@H]2[C@@H]3CCC4=CC(=O)CCC4=C3[C@@H](c3ccc(N(C)C)cc3)C[C@@]21C [RU486, mifepristone]
FA block of MC-induced TSLP RNA upon RU co-treatment (TSLP; WT mice, ears, topical): restored
FA-induced inhibition of basal TSLP RNA level upon co-application of RU486 (TSLP; WT mice, ears, topical): relieved
FA-enhanced GPX3 expression upon RU co-treatment [1]: inhibited
effect on MC-dependent expression of the CYP24A1 gene [2]: no effect
FA-induced decrease of luciferase expression (IR1 nGRE) upon RU addition [3]: prevented
GC-induced repression of IR0 and IR2 genes upon co-administration of RU [4]: relieved
effect of Dex treatment on IR nGRE-mediated transrepression upon excess RU co-treatment [5]: reverted
effect of RU on NFκB/AP1-mediated tethered transrepression [6]: little effect

recruiting a repressing complex tethered to NFκB bound to its cognate element [10]: as efficient as Dex
SMILES: C[C@@H]1C[C@H]2[C@@H]3CCC4=CC(=O)C=C[C@]4(C)[C@@]3(F)[C@@H](O)C[C@]2(C)[C@H]1C(=O)CC#N [RU24858]
inducing transactivation of (+)GRE pGL3 luciferase plasmid [7]: much less efficient than Dex
repression of IL1β-induced activation of transcription by NFκB [8]: almost as efficient as Dex
repression of IL1β-induced activation of transcription by AP1 [9]: almost as efficient as Dex
GC-dependent expression of the (+)GRE-containing GPX3 gene [11]: did not activate
GC-dependent expression of the ERP27 gene [12]: did not activate
GC-dependent expression of the GGT1 gene [12]: did not activate
down-regulating, through NFκB-mediated tethered transrepression, genes enhanced by topical TPA [13]: as efficient as Dex
transrepression of IR0 nGRE gene CCND1 [14]: as efficient as Dex
transrepression of IR1 nGRE gene CYP26A1 [14]: as efficient as Dex
transrepression of IR1 nGRE gene K14 [14]: as efficient as Dex
transrepression of IR1 nGRE gene PRKCB [14]: as efficient as Dex
transrepression of IR1 nGRE gene TSLP [14]: as efficient as Dex
transrepression of IR2 nGRE gene DPAGT1 [14]: as efficient as Dex
GR-SMRT/NCoR repressing complexes on nGRE regions [15]: recruitment of GR-SMRT/NCoR repressing complexes
assembly of an activating complex on (+)GRE of GPX3, GGT1 and ERP27 [15]: did not induce assembly of an activating complex
dissociated profile (tethered indirect transrepression vs direct transactivation) in vitro (GR [16]): exhibit the expected dissociated profile in vitro
dissociation upon administration in vivo (GR [17]): failed to confirm this dissociation
